Test results: patent publication US20130172414A1, “PHARMACEUTICAL COMPOSITION COMPRISING LEVOCARNITINE AND DOBESILATE” (TIANJIN NANKAI SHARE PHARMACEUTICAL SCIENCE & TECHNOLOGY …, priority 2010, published 2013)

Assays:
mice = experiment: Mice acute toxicity test (Example 7); conditions: mice acute toxicity
Source text: (§1) Toxicity Test According to the methods described in literatures (“Guiding principles for acute toxicity test of a chemical drug”, No. [H]GPT1-1, CENTER FOR DRUG EVALUATION, SFDA; Bojun Yuan et. al., “The Preclinical Safety Evaluation and Practice of New Drug”, Military Medical Science Press, 1997: 23-36[…] Bojun Yuan et. al., “Methods and Techniques for Drug ToxicologicalTest”, Chemical Industry Press, 2008: 200-210), the preparation of levocamitine and calcium dobesilate obtained from example 2 was tested for mice acute toxicity.

[1] = system: rats in chronic renal failure model; conditions: cited from earlier work
[2] = system: adenine-induced mice renal failure model; experiment: Pharmacodynamic test, chronic renal failure model (Example 5); assay type: in vivo, SPF grade Kunming mice; conditions: for Water content of renal tissue / blood urea nitrogen (BUN) / body weight after 4 weeks / renal index / serum creatinine (Scr): 350 mg/kg once per day for 4 weeks, n=10; for values of Scr and BUN as compared with the renal failure group: 350 mg/kg, 4 weeks
Procedure: Based on intergroup consistency principle, SPF grade Kunming mice (with a body weight of about 20 to 22 g, half male and half female) were randomly divided into 5 groups (n=10) with one of them as the control group. Except for control group, 300 mg/kg (20 ml/kg·d) of adenine was administrated given to mice once per day for successive 3 days by gavage, thereby to obtain adenine-induced mice renal failure model as described in the references (see for example Pingdong Zheng et. al, “The establishment of chronic renal failure animal model with adenine, Chinese Journal of Nephrology, 1989, 5(4): 342-344; Deyu Guo et. al., “The establishment of mice model with chronic renal insufficiency”, CHINESE JOURNAL OF LABORATORY ANIMAL SCIENCE, 2001, 11(3): 142-145; and Shuling Sun et. al, “The traditional Chinese medicinal intervention and pathological observations in mice chronic renal failure model”, ZHEJIANG JOURNAL OF INTEGRATED TRADITIONAL CHINESE AND WESTERN MEDICINE, 2002, 12(4): 221-222).
Thereafter, except for the control group, based on intergroup consistency principle, the remaining 4 groups were redivided randomly into 4 groups, renal failure group, levocarnitine (350 mg/kg) group, calcium dobesilate (350 mg/kg) group, as well as levocarnitine and calcium dobesilate group (350 mg/kg) (wherein the ratio of levocamitine and calcium dobesilate is 1:1). Except for the renal failure group, mice of each group were administrated at the given dosage once per day for successive 4 weeks. Then the data for the mice of each group such as body weight, blood urea nitrogen (BUN), serum creatinine (Scr), renal index and water content of renal tissue were determined.

[3] = Mice acute toxicity test (Example 7); conditions: mouse, in vivo
Source text: as §1

ischemic/reperfused rat = conditions: cited from earlier work

Row | Compound | LD50 (mice) | content of thromboxane Az in the homogenate of renal cortex [1] | level of Scr and BUN [1] | Water content of renal tissue [2] | blood urea nitrogen (BUN) [2] | body weight after 4 weeks [2] | renal index [2] | serum creatinine (Scr) [2] | values of Scr and BUN as compared with the renal failure group [2] | LD50 [3] | content of malonaldehyde (MDA) in renal tissue (ischemic/reperfused rat) | content of reduced glutathione (GSH) (ischemic/reperfused rat) | serum creatinine (Scr) and blood urea nitrogen (BUN) (ischemic/reperfused rat)
1 | O=S(=O)([O-])c1cc(O)ccc1O.O=S(=O)([O-])c1cc(O)ccc1O.[Ca+2] [Calcium dobesilate, calcium dobesilate] | 10600 mg/kg | reduce notably | decreasing | 75.9 ± 1.8% | 11.8 ± 7.0 mmol/L | 31.6 ± 4.6 g | 7.2 ± 0.7 | 10.0 ± 9.2 µmol/L | decreased | – | – | – | –
2 | C[N+](C)(C)C[C@H](O)CC(=O)[O-] [Levocarnitine, (R)-3-carboxy-2-hydroxy-N,N,N-trimethyl-1-propanaminium hydroxide] | – | – | – | 76.0 ± 2.0% | 9.7 ± 5.8 mmol/L | 32.3 ± 5.3 g | 7.0 ± 1.3 | 21.6 ± 11.8 µmol/L | decreased | 19200 mg/kg | reduce | increase | can reduce
